“Also recorded” adds a separate entry of the source.
Tests used:
[1] = test system: C4-2B cells; assay: Matrigel invasion assay, C4-2B; format: cell-based; conditions: 48 hours
Procedure: (§1) Invasion assay was performed using (8.0 μm pore size) BD Matrigel Invasion chambers in 24-well plate (Catalog: 354480, BD Biosc.). 750 μL medium (with 20% FBS) was added into lower chamber of each well (DMEM for VCaP, RPMI 1640 for C4-2B and DU145). Next, 5×10^5 VCaP or 5×10^5 C4-2B or 1×10^4DU145 cells in 500 μL medium (with 0.5% FBS) were seeded into the upper chamber of each well. DMSO vehicle or compounds in DMSO solution were added into upper chamber to reach the designated doses. After 48 hours incubation, the invasive cells attached to the lower surface of the membrane insert were fixed in 10% formalin at room temperature for 30 minutes and stained with 0.05% crystal violet. The number of invasive cells was then counted under a microscope. Invasion experiments were performed in duplicate. ***p<0.0001 when compared with vehicle control.

[2] = test system: VCaP cells; assay: Matrigel invasion assay, VCaP; format: cell-based; conditions: 48 hours
Procedure: as §1

[3] = target: T1, ETV1 (Homo sapiens, UniProt P50549); assay: ETV1-dependent reporter assay in HEK293 cells; format: cell-based; conditions: 48 hours
T1 construct: expressed in transfected cells; host or cells: HEK293
T1 sequence (P50549 1-477): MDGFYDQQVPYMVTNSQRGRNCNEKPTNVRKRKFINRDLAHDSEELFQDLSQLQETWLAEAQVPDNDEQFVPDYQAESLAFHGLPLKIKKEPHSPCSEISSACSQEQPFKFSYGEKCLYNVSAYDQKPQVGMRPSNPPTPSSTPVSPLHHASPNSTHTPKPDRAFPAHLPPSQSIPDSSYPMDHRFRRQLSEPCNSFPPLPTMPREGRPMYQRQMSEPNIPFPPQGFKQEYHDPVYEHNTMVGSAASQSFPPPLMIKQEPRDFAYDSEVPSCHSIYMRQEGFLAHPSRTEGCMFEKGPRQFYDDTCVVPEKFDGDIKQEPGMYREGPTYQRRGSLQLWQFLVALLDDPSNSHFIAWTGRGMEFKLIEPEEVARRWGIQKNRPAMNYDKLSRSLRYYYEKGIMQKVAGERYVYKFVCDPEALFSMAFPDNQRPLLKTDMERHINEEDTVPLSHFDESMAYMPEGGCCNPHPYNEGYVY
Procedure: (§2) HEK293 cells were transiently transfected with empty vector (for the NT) or ERG-expressing plasmid as well as pRL-TK (internal control) and PUx3-Luc reporter. Cells were then exposed to DMSO vehicle or compounds at designated doses for 48 hours. Experiments were done in triplicate.
Experiments were done as described above in FIG. 1.1a) except that ERG plasmid was replaced by ETV1 plasmid.

[4] = target: T2, ERG (Homo sapiens, UniProt P11308); assay: ERG-dependent reporter assay in HEK293 cells; format: cell-based; design: expressed in transfected cells; host or cells: HEK293; conditions: PUx3-Luc reporter, 48 hours, designated doses
T2 sequence (P11308 1-486 isoform P11308-3): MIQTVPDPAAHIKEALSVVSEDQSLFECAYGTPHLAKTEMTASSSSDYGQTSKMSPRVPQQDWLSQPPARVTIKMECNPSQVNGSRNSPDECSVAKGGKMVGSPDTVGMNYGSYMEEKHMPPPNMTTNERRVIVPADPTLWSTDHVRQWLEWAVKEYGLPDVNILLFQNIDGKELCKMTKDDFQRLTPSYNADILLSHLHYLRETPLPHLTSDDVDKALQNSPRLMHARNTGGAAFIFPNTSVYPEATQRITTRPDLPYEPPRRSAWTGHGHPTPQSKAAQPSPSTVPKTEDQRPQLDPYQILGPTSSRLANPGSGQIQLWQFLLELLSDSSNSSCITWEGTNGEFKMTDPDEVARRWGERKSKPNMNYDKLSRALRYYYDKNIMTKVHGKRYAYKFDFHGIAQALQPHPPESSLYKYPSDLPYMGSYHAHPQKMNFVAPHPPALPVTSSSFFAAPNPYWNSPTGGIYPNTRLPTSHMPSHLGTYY
Procedure: as §2

[5] = test system: EZH2, c-Myc and ERG expression in VCaP cells; assay: Expression of EZH2, c-Myc and ERG in VCaP cells; format: cell-based; conditions: 10 μM, 72 hours
Procedure: VCaP cells were exposed to DMSO vehicle control, 648, 698 and 891 at 10 μM for 72 hours in DMEM medium plus 10% FBS or phenol red-free DMEM medium plus 10% charcoal-stripped FBS (CS-FBS).

[6] = target: T2, ERG; assay: Surface Plasmon Resonance (SPR) analysis on amine-coupled ERG; format: binding
Procedure: Steady-state kinetics of compound 648, YK-4-279 (positive control) and bicalutamide (Bic) (negative control) over amine-coupled ERG surfaces with 50 μM injection (25 μL/min×120 sec association+120 sec dissociation). High-density ERG (6000 RU) and reference surface (no ERG) were amine-coupled to CM5 sensors using BIACORE 3000 instrumentation. YK-4-279 is a known ERG inhibitor. Bic is an antagonist of the androgen receptor.
FIG. 1.5b) Preliminary SPR data to characterize binding affinity of compound 648. Rapid on/off kinetics for compound 648 when titrated over amine-coupled ERG surfaces at 0, 10, 20, 30, 40, and 50 μM (25 μL/min×120 sec association+120 sec dissociation).

[7] = target: T3, mouse STING (mSTING) (Mus musculus, UniProt Q3TBT3); assay: mSTING ISRE-luc reporter assay in 293T cells; format: cell-based; conditions: 24 hours
T3 construct: expressed in transfected cells; host or cells: 293T
T3 sequence (Q3TBT3 1-378): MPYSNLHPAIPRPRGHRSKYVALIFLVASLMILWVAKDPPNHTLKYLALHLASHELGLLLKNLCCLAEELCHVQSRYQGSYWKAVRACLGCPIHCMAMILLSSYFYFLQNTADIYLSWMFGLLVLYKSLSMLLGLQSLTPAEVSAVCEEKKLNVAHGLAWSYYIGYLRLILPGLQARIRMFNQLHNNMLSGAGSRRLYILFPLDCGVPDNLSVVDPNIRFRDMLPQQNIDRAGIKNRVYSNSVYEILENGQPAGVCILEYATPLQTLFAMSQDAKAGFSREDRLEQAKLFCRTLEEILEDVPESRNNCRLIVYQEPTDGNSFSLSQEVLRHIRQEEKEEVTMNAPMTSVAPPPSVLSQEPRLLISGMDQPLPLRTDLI
Procedure: ISRE-luc (reporter), pRL-TK (internal control) and mSTING-expressing plasmids were transiently transfected into 293T cells. Cells were exposed to DMSO vehicle control or compounds for 24 hours. Experiments were done in triplicate.

[8] = target: T4, human GATA2 (Homo sapiens, UniProt P23769); assay: GATA2-dependent reporter assay in IHH cells; format: cell-based; conditions: GATA-Luc reporter, 48 h
T4 construct: expressed in transfected cells; host or cells: IHH
T4 sequence (P23769 1-480): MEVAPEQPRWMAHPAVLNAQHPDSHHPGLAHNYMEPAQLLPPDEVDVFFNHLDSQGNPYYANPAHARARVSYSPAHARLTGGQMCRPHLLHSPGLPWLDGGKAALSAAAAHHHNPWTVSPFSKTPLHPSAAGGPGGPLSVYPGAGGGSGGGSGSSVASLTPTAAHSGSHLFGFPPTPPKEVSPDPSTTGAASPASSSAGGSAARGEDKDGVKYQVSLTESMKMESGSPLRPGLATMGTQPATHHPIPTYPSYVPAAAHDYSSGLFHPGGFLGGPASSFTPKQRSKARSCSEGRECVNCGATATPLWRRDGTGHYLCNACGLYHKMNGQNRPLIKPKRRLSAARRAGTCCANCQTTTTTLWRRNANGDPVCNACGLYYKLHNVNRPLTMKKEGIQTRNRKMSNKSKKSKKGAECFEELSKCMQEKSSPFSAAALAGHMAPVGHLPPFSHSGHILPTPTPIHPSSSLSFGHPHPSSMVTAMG
Procedure: K7174 is a known GATA2 inhibitor. The IHH cells were transiently transfected with empty vector (for the NT) or human GATA2-expressing plasmid as well as pRL-TK (internal control) and GATA-Luc reporter plasmids. Cells were exposed to DMSO vehicle or compounds for 48 h. Experiments were in triplicate.

[9] = target: T5, human GATA3 (Homo sapiens, UniProt P23771); assay: GATA3-dependent reporter assay in IHH cells; format: cell-based; conditions: 48 hours
T5 construct: expressed in transfected cells; host or cells: IHH
T5 sequence (P23771 whole entry): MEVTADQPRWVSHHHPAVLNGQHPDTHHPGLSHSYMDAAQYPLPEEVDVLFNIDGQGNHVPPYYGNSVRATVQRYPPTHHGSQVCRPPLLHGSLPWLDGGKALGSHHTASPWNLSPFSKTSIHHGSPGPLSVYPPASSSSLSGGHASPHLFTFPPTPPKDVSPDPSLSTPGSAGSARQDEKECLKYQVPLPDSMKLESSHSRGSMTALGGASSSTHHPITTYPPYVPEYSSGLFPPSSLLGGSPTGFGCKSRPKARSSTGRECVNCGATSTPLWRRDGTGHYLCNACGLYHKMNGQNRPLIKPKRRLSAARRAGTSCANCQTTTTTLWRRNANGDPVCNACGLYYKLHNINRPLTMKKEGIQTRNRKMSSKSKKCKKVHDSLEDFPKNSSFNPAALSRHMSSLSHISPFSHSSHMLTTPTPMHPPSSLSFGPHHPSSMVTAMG
Procedure: The IHH cells were transiently transfected with empty vector (for the NT) or human GATA3-expressing plasmid as well as pRL-TK (internal control) and GATA-Luc reporter plasmids. Cells were exposed to DMSO vehicle or compounds for 48 hours. Experiments were done in triplicate.

[10] = target: T6, human STING (hSTING) (Homo sapiens, UniProt Q86WV6); assay: hSTING ISRE-luc reporter assay in 293T cells; format: cell-based; conditions: 24 hours
T6 construct: expressed in transfected cells; host or cells: 293T
T6 sequence (Q86WV6 whole entry H232R): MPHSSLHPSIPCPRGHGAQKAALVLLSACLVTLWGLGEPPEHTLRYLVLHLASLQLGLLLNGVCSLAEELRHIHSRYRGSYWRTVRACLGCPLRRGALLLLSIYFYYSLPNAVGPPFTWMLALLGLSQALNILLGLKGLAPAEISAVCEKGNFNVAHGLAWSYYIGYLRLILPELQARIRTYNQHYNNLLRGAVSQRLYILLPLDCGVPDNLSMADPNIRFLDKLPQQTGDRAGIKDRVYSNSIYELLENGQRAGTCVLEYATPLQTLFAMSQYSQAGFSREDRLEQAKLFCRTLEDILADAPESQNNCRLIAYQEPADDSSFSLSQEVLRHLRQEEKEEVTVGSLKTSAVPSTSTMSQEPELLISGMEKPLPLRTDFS
Procedure: ISRE-luc (reporter), pRL-TK (internal control) and hSTING-expressing plasmids were transiently transfected into 293T cells. Cells were exposed to DMSO vehicle control or compounds for 24 hours. Experiments were done in triplicate.

[11] = target: T7, recombinant protein of human GATA2 (Homo sapiens, UniProt P23769); assay: SPR analysis on amine-coupled GATA2; format: binding; conditions: 50 μM each
T7 sequence (P23769 1-480): T4 sequence (P23769 1-480)
Source text: In embodiments of the invention, the androgen-bound AR is regressing GATA2 expression and inhibition of AR via castration or use of antiandrogen releases such expression. […] Overexpression of GATA2 confers resistance to antiandrogen bicalutamide (Bic) (FIG. 2.9). Compound 673 is effective against the LNCaP stably transfected with GATA2-expressing plasmid (referred to as LNCaP-GATA2 cells) (FIG. 2.8).

[12] = target: human STING (Homo sapiens, UniProt Q86WV6); assay: SPR analysis on amine-coupled human STING; format: binding; conditions: 0-50 μM, 2-fold dilution series
Chain of human STING (Q86WV6 whole entry H232R): as above

[13] = target: T8, ESE-1 (Homo sapiens, UniProt P78545); assay: ESE-1 dependent reporter assay in HEK293 cells; format: cell-based; conditions: 48 hours
T8 construct: expressed in transfected cells; host or cells: HEK293
T8 sequence (P78545 1-371): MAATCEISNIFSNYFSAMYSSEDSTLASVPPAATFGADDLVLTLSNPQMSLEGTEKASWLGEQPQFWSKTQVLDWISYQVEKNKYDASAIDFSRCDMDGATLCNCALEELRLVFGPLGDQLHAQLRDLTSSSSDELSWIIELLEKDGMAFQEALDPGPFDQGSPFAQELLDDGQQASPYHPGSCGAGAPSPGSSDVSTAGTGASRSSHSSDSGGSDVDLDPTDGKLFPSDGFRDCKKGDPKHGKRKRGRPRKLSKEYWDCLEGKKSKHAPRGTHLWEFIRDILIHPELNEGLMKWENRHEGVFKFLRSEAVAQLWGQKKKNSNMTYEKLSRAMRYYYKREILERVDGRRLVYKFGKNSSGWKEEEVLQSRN
Procedure: as §2
Experiments were done as described above in FIG. 1.1a) except that ERG plasmid was replaced by ESE-1 plasmid.

[14] = target: T9, ETS-2 (Homo sapiens, UniProt P15036); assay: ETS-2 dependent reporter assay in HEK293 cells; format: cell-based; conditions: 48 hours
T9 construct: expressed in transfected cells; host or cells: HEK293
T9 sequence (P15036 whole entry, species assumed): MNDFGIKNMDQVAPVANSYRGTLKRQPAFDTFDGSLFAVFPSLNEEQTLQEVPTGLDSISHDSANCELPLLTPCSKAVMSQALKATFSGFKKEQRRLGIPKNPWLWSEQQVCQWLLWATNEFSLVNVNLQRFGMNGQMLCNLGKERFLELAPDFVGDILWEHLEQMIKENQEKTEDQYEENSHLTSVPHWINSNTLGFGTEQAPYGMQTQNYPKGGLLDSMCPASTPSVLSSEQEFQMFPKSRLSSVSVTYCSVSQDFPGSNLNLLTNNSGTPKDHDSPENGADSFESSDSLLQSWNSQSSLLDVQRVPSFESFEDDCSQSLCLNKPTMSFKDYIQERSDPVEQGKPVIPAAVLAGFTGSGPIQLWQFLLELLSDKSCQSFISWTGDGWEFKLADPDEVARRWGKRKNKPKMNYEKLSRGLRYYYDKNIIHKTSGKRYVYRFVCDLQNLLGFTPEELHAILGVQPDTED
Procedure: as §2
Experiments were done as described above in FIG. 1.1a) except that ERG plasmid was replaced by ETS-2 plasmid.

[15] = test system: LNCaP-pcDNA and LNCaP-GATA2 cells; assay: MTT assay in LNCaP-pcDNA and LNCaP-GATA2 cells; format: cell-based; conditions: 72 hours
Procedure: Cells were exposed to DMSO vehicle or compounds for 72 hours. Vial cells were evaluated by MTT assays. Experiments were done in triplicate.

## Oc1cccc(-c2nc(Cc3c[nH]c4ccccc34)oc2-c2cccc(O)c2)c1 [Compound 648]
[1]
  inhibition of invasion of C4-2B cells: potently inhibits invasion
[2]
  inhibition of invasion of VCaP cells: potently inhibits invasion
[3]
  ETV1 inhibition in ETV1-dependent reporter assay: ETV1 inhibitors
[4]
  ERG inhibition in ERG-dependent reporter assay: potent inhibitor of ERG; also recorded: ERG inhibitors
[5]
  inhibition of expression of EZH2, c-Myc and ERG: inhibit expression of EZH2, c-Myc and ERG
[6]; 50 μM injection, amine-coupled ERG
  direct binding with human ERG protein (SPR): direct binding
[6]; titrated at 0-50 μM, preliminary data
  KD for ERG, steady-state affinity model (SPR): low micromolar

## c1coc(-c2nc(CCCc3c[nH]c4ccccc34)[nH]c2-c2ccco2)c1 [Compound 817]
[7]
  activation of mSTING in ISRE-luc reporter assay: activate mouse STING (mSTING)
[8]
  GATA2 inhibition in GATA2-dependent reporter assay: GATA2 inhibitors
[9]; 10 μM
  activity against GATA3 in GATA3-dependent reporter assay: inactive against GATA3
[9]; compounds at 5 μM
  activity against GATA3 in GATA3-dependent reporter assay: inactive against GATA3
[10]
  activation of hSTING in ISRE-luc reporter assay: activate hSTING
[11]
  binding to amine-coupled GATA2 (SPR): Direct binding; also recorded: Specific binding
[12]
  binding to amine-coupled human STING (SPR): Specific, dose-dependent binding; also recorded: Direct binding

## N#CC(NC(=O)c1ccccc1)SCc1ccccc1 (stereo not drawn) [Compound V154]
[13]
  ESE-1 inhibition in ESE-1 dependent reporter assay: ESE-1 inhibitors
[14]
  ETS-2 inhibition in ETS-2 dependent reporter assay: ETS-2 inhibitor
[4]
  ERG inhibition in ERG-dependent reporter assay: ERG inhibitors

## CC(O)(CS(=O)(=O)c1ccc(F)cc1)C(=O)Nc1ccc(C#N)c(C(F)(F)F)c1 (stereo not drawn) [bicalutamide, reference compound]
[15]
  cytotoxicity in LNCaP-GATA2 compared with LNCaP-pcDNA cells (MTT): less active in LNCaP-GATA2 cells

Source: patent publication US10844051B2, “Substituted oxazoles for the treatment of cancer” (THE ROYAL INSTITUTION FOR THE ADCANCEMENT OF …, priority 2015, dated 2020)
